Test results taken from patent US20210114973A1, “PHARMACEUTICAL FORMULATIONS” (First Wave Bio, Inc., priority 2019, published 2021).

Key:
[1] = cited from earlier work
[2] = Effect of particle size on colonic exposure levels: single rectal dose of niclosamide suspension, blood and rectal mucosa samples; conditions: rabbit; for plasma concentration of niclosamide (maximum measured): rectal administration, 1 hour (time point of maximum plasma concentration)
Method: These preparations of niclosamide were formulated into a suspension. Rabbits were treated with a single dose of these niclosamide suspensions at the dose levels specified. Following dosing, blood samples and rectal mucosa samples were obtained at indicated time points.

concentration at 1 hour ([2]; colon tissue, other: rectal, 22.5 mg) [ng/mL] | plasma concentration of niclosamide (maximum measured) ([2]; 7.5 mg single dose) | plasma concentration of niclosamide (maximum measured) ([2]; 22.5 mg single dose) | SMILES | solubility in acetone ([1]; acetone) | solubility in ether, ethanol and chloroform ([1]; ether, ethanol and chloroform) | water solubility ([1]; water, 20° C.) [mg/L]
 |  |  | O=C(Nc1ccc([N+](=O)[O-])cc1Cl)c1cc(Cl)ccc1O [Niclosamide, 5-chloro-N-(2-chloro-4-nitrophenyl)-2-hydroxybenzamide] | soluble | sparingly soluble | 5 to 8
6090 | 6.576 | 20.24 | O=C(Nc1ccc([N+](=O)[O-])cc1Cl)c1cc(Cl)ccc1O [milled niclosamide, 5-chloro-N-(2-chloro-4-nitrophenyl)-2-hydroxybenzamide] |  |  | 
